# Measurements as given in patent US20150274719A1, “AMINO-SUBSTITUTED IMIDAZO[1,2-A]PYRIDINECARBOXAMIDES AND THEIR USE” (BAYER PHARMA AKTIENGESELLSCHAFT, priority 2012, published 2015).
# Where a name gives a salt, the structure may show the parent alone.
# Target: T1, recombinant guanylate cyclase reporter cell line (Rattus norvegicus, UniProt P19686+P20595)
# T1 construct: expressed in transfected cells; host or cells: recombinant reporter cell line
# T1 sequence (P19686 1-690): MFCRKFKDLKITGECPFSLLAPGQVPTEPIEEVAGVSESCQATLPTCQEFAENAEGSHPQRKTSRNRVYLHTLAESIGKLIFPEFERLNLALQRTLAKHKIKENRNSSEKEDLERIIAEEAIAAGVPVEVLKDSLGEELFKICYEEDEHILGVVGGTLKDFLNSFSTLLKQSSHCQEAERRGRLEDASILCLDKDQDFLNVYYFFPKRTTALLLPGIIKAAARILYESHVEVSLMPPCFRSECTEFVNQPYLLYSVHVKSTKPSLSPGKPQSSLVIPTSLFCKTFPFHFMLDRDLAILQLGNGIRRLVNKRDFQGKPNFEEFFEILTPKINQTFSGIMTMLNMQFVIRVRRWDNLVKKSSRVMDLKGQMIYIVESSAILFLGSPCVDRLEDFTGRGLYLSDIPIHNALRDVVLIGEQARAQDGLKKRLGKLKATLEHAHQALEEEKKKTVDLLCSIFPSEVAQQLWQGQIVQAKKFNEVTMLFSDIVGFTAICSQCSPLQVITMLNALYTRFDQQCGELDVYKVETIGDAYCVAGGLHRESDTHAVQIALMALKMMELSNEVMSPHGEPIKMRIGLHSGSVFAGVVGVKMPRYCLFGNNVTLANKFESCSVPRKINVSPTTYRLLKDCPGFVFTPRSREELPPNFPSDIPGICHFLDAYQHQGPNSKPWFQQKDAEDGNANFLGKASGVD
# T1 sequence (P20595 1-619): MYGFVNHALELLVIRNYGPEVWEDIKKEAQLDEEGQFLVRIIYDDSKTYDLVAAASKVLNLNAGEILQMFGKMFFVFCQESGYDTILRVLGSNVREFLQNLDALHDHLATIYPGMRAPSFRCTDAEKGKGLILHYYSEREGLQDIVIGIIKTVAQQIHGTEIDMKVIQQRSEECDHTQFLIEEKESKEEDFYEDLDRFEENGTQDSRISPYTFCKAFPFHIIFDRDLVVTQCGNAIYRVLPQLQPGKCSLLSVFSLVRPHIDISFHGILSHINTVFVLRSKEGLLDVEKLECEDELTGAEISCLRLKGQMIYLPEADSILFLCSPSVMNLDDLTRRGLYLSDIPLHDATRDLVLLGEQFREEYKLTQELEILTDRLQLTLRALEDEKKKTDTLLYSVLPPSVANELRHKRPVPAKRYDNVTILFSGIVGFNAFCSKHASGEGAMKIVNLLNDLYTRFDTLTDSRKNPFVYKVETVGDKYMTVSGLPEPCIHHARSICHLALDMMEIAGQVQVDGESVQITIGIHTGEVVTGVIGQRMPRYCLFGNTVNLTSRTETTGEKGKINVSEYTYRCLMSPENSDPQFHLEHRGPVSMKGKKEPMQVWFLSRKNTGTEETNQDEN
# Assay: Action on recombinant guanylate cyclase reporter cell line
# Type: cell-based
# Conditions: in some cases mean values from individual determinations
# Outline: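 Read-out: MEC (minimal effective concentration) in cells. Reporter line carries recombinant sGC. Some values are averages of single runs.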
row,SMILES,MEC (minimal effective concentration) [µM]
1,"Cc1cc(OCc2c(F)cccc2F)c2nc(C)c(C(=O)NCCN3CC(N4CCCC4)C3)n2c1 [Example 162, 8-[(2,6-difluorobenzyl)oxy]-2,6-dimethyl-N-{2-[3-(pyrrolidin-1-yl)azetidin-1-yl]ethyl}imidazo[1,2-a]pyridine-3-carboxamide]",3.00
2,"COCCNCCNC(=O)c1c(C)nc2c(OCc3c(F)cccc3F)cc(Cl)cn12 [Example 153, 6-chloro-8-[(2,6-difluorobenzyl)oxy]-N-{2-[(2-methoxyethyl)amino]ethyl}-2-methylimidazo[1,2-a]pyridine-3-carboxamide]",1.00
3,"Cc1nc2c(OCc3c(F)ccc(F)c3F)cccn2c1C(=O)NC(CN)c1ccc(F)c(F)c1 (stereo not drawn) [Example 100, ent-N-[2-amino-1-(3,4-difluorophenyl)ethyl]-2-methyl-8-[(2,3,6-trifluorobenzyl)oxy]imidazo[1,2-a]pyridine-3-carboxamide]",0.30
4,"Cc1cc(OCc2c(F)cccc2F)c2nc(C)c(C(=O)NCC(N)c3ccc(C)o3)n2c1 (racemic) [Example 369, rac-N-[2-amino-2-(5-methyl-2-furyl)ethyl]-8-[(2,6-difluorobenzyl)oxy]-2,6-dimethylimidazo[1,2-a]pyridine-3-carboxamide]",0.30
5,"Cc1nc2c(OCc3c(F)cccc3F)cccn2c1C(=O)NCCNC(C)C [Example 130, 8-[(2,6-difluorobenzyl)oxy]-N-[2-(isopropylamino)ethyl]-2-methylimidazo[1,2-a]-pyridine-3-carboxamide]",1.00
6,"Cc1nc2c(OCc3c(F)cccc3F)cccn2c1C(=O)NC1CCNc2ccc(F)cc21 (single isomer, unassigned; ent-8) [Example 105, ent-8-[(2,6-difluorobenzyl)oxy]-N-(6-fluoro-1,2,3,4-tetrahydroquinolin-4-yl)-2-methylimidazo[1,2-a]pyridine-3-carboxamide]",0.30
7,"Cc1cc(OCc2c(F)cccc2F)c2nc(C)c(C(=O)NC3CNCC3C(F)(F)F)n2c1 (mixture of isomers) [Example 313, 8-[(2,6-Difluorobenzyl)oxy]-2,6-dimethyl-N-[4-(trifluoromethyl)pyrrolidin-3-yl]imidazo[1,2-a]pyridine-3-carboxamide (mixture of stereoisomers)]",0.30
8,"Cc1nc2c(OCc3c(F)cccc3F)cc(Cl)cn2c1C(=O)NCC(N)C(C)C (single isomer, unassigned) [Example 212, ent-N-(2-Amino-3-methylbutyl)-6-chloro-8-[(2,6-difluorobenzyl)oxy]-2-methylimidazo[1,2-a]-pyridine-3-carboxamide]",1.00
9,"Cc1nc2c(OCc3c(F)cccc3F)cccn2c1C(=O)NCC(C)CN (single isomer, unassigned) [Example 95, ent-N-(3-Amino-2-methylpropyl)-8-[(2,6-difluorobenzyl)oxy]-2-methylimidazo[1,2-a]pyridine-3-carboxamide dihydrochloride]",1.00
10,"Cc1cc(OCc2c(F)cccc2F)c2nc(C)c(C(=O)NCCNC(C)(C)C)n2c1 [Example 255, N-[2-(tert-Butylamino)ethyl]-8-[(2,6-difluorobenzyl)oxy]-2,6-dimethylimidazo[1,2-a]pyridine-3-carboxamide]",0.30
11,"Cc1nc2c(OCc3c(F)cccc3F)cccn2c1C(=O)NC(CN)c1ccc(F)c(F)c1 (racemic) [Example 11, rac-N-[2-Amino-1-(3,4-difluorophenyl)ethyl]-8-[(2,6-difluorobenzyl)oxy]-2-methylimidazo[1,2-a]pyridine-3-carboxamide]",0.30
12,"Cc1nc2c(OCc3c(F)cccc3F)cccn2c1C(=O)NCC(N)COC(C)C (racemic) [Example 205, rac-N-(2-Amino-3-isopropoxypropyl)-8-[(2,6-difluorobenzyl)oxy]-2-methylimidazo[1,2-a]-pyridine-3-carboxamide]",0.30
13,"CCC(C)(CN)NC(=O)c1c(C)nc2c(OCc3c(F)ccc(F)c3F)cc(C)cn12 (stereo not drawn) [Example 315, ent-N-(1-amino-2-methylbutan-2-yl)-2,6-dimethyl-8-[(2,3,6-trifluorobenzyl)oxy]imidazo[1,2-a]pyridine-3-carboxamide]",0.30
14,"CCCC(C)(N)CNC(=O)c1c(CC)nc2c(OCc3c(F)cccc3F)cc(C)cn12 (racemic) [Example 301, rac-N-(2-amino-2-methylpentyl)-8-[(2,6-difluorobenzyl)oxy]-2-ethyl-6-methylimidazo[1,2-a]pyridine-3-carboxamide]",0.10
15,"Cc1nc2c(OCc3c(F)cc(F)cc3F)cccn2c1C(=O)NC(CN)c1ccc(F)c(F)c1 (stereo not drawn) [Example 101, ent-N-[2-amino-1-(3,,4-difluorophenyl)ethyl]-2-methyl-8-[(2,4,6-trifluorobenzyl)oxy]imidazo[1,2-a]pyridine-3-carboxamide]",1.00
16,"Cc1cc(OCc2c(F)cccc2F)c2nc(C)c(C(=O)NC3CCC3(C)N)n2c1 (racemic) [Example 331, rac-N-(2-amino-2-methylcyclobutyl)-8-[(2,6-difluorobenzyl)oxy]-2,6-dimethylimidazo[1,2-a]pyridine-3-carboxamide]",0.30
17,"Cc1nc2c(OCc3c(F)cccc3F)cccn2c1C(=O)NCC(N)C(F)(F)F (single isomer, unassigned) [Example 209, ent-N-(2-Amino-3,3,3-trifluoropropyl)-8-[(2,6-difluorobenzyl)oxy]-2-methylimidazo[1,2-a]-pyridine-3-carboxamide]",0.30
18,"CCCC(C)(N)CNC(=O)c1c(C)nc2c(OCc3c(F)c(F)cc(F)c3F)cc(C)cn12 (racemic) [Example 311, rac-N-(2-amino-2-methylpentyl)-2,6-dimethyl-8-[(2,3,5,6-tetrafluorobenzyl)oxy]imidazo[1,2-a]pyridine-3-carboxamide]",0.30
19,"Cc1nc2c(OCc3c(F)cccc3F)cccn2c1C(=O)NC(CN)CC(F)(F)F (racemic) [Example 2, rac-N-(1-Amino-4,4,4-trifluorobutan-2-yl)-8-[(2,6-difluorobenzyl)oxy]-2-methylimidazo[1,2-a]-pyridine-3-carboxamide]",0.65
20,"CCCC(C)(N)CNC(=O)c1c(C)nc2c(OCc3c(F)cccc3F)cc(CC)cn12 (stereo not drawn) [Example 323, ent-N-(2-amino-2-methylpentyl)-8-[(2,6-difluorobenzyl)oxy]-6-ethyl-2-methylimidazo[1,2-a]pyridine-3-carboxamide]",0.30
21,"Cc1nc2c(OCc3c(F)cccc3F)cccn2c1C(=O)NC(CN)CC(C(F)(F)F)C(F)(F)F (racemic) [Example 5, rac-N-[1-amino-5,5,5-trifluoro-4-(trifluoromethyl)pentan-2-yl]-8-[(2,6-difluorobenzyl)oxy]-2-methylimidazo[1,2-a]-pyridine-3-carboxamide trifluoroacetate]",1.00
22,"NCC(NC(=O)c1cnc2c(OCc3c(F)cccc3F)cccn12)c1ccc(F)c(F)c1 (stereo not drawn) [Example 55, ent-N-[2-amino-1-(3,4-difluorophenyl)ethyl]-8-[(2,6-difluorobenzyl)oxy]imidazo[1,2-a]pyridine-3-carboxamide dihydrochloride]",2.00
23,"Cc1cc(OCc2c(F)cccc2F)c2nc(C)c(C(=O)NCC(N)c3ccc4c(c3)OCCO4)n2c1 (racemic) [Example 371, rac-N-[2-amino-2-(2,3-dihydro-1,4-benzodioxin-6-yl)ethyl]-8-[(2,6-difluorobenzyl)oxy]-2,6-dimethylimidazo[1,2-a]pyridine-3-carboxamide]",3.00
24,"Cc1nc2c(OCc3c(F)cccc3F)cccn2c1C(=O)NC1CCN(Cc2ccccc2)C1 (racemic) [Example 85, rac-N-(1-benzylpyrrolidin-3-yl)-8-[(2,6-difluoro-benzyl)oxy]-2-methylimidazo[1,2-a]-pyridine-3-carboxamide]",1.00
